According to the METLIN SMRT retention time set (Domingo-Almenara et al. 2019):

Experiment: gradient 5% acetonitrile 3 min, to 50% in 2 min, to 85% in 15 min, held 3 min, 100 µL/min
Details: column: Zorbax Extend-C18 2.1 x 50 mm; eluents: water / acetonitrile, 0.1% formic acid
Procedure, shortened: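 Each retention time is based on an adduct peak selected computationally and verified by manual inspection. Measurements used HPLC–quadrupole time-of-flight mass spectrometry in positive and negative ionization mode on mixtures of ~100 pure standards. Chromatography ran on a Zorbax Extend-C18 column (2.1 × 50 mm, 1.8 μm) at 100 μL/min with water and acetonitrile, each containing 0.1% formic acid, and dead and dwell volumes of 40 μL and 900 μL.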

| RP-LC retention time | Compound |
| --- | --- |
| 680 s | Cc1nn(CC(=O)N2CCCC2)c(=O)c2nc(C(C)C)sc12 |
| 894 s | Cc1nc(-n2cccc2)sc1C(=O)NCc1cc(-c2cccs2)on1 |
| 920 s | COc1ccccc1CNC(=O)Cn1cccc1-c1nnc(-c2ccccc2)o1 |
| 687 s | CN(CC1CCOCC1)C(=O)Cc1ccc(F)cc1 |
| 907 s | O=C(NC1CCN(Cc2ccccc2)CC1)C1CCCN(c2cnc3nccnc3c2)C1 (centres undefined) |
| 601 s | Cc1ccc(C)c(N2C(=O)CC(N3CCC(C(N)=O)CC3)C2=O)c1 (centres undefined) |
| 668 s | O=[N+]([O-])c1c(NCCCO)cc(NCc2ccc3c(c2)OCO3)c2nonc12 |
| 882 s | COc1ccc(-n2ccnc(NC(=O)Nc3cccc(F)c3)c2=O)cc1OC |
| 647 s | CSc1cccc(NC(=O)N2CCN(C)CC2)c1 |
| 969 s | COc1ccccc1C(=O)Nc1nc(-c2ccc3c(c2)N(C)C(=O)CO3)cs1 |
| 1260 s | CCOC(=O)c1cc(C2CC2)nc2c1c(=O)n(Cc1ccc(C)cc1)c(=O)n2C |
| 838 s | Cc1cc(C)cc(C(=O)Nc2cc(-c3cccnc3)no2)c1 |
| 804 s | O=C(NC1CC1)c1ccc2c(c1)CCCN2S(=O)(=O)c1ccccc1 |
| 1010 s | Cc1ccccc1C(=O)Nc1nc(-c2ccc3c(c2)N(C)C(=O)C(C)O3)cs1 (centres undefined) |
| 592 s | Cc1ccc(C(=O)NCCN2CCCC2)cc1NC(=O)C1=CSCCO1 |
| 590 s | Cn1c(N2CCCC(C(=O)NCC3CCN(Cc4ccc(F)cc4)CC3)C2)cc(=O)n(C)c1=O (centres undefined) |
| 848 s | O=C(NC1CC1)c1ccccc1OCC1CCN(C(=O)c2cc(F)cc(F)c2)CC1 |
| 818 s | Cc1cc(C2CCCN2C(=O)Nc2ccc(C)c(F)c2)no1 (centres undefined) |
| 945 s | CC(=O)N1CCc2sc(S(=O)(=O)N3CCN(c4ccccc4Cl)CC3)cc2C1 |
| 564 s | O=C([C@@H]1C[C@H](Oc2cccnc2)CN1C(=O)c1n[nH]c(=O)c2ccccc12)N1CCCC1 |
| 614 s | COc1ccc(CC(=O)N2C[C@@H]3C[C@H]2C[C@@H]3NC(=O)c2cccnc2)cc1Cl |
| 797 s | CC1CCN(S(=O)(=O)c2ccc(-c3nnc(C(=O)N4CCOCC4)o3)cc2)CC1 |
| 768 s | COc1ccc(CC(=O)Nc2ccc3c(c2)CCC(=O)N3C)c(Cl)c1 |

| RP-LC retention time | Compound |
| --- | --- |
| 884 s | CCn1ccc2sc(C)c(C(=O)NCC3CCCCC3)c2c1=O |
| 1050 s | CC(C)n1c(=O)sc2cc(S(=O)(=O)N3CCC(C(=O)Nc4ccc(Cl)cc4)CC3)ccc21 |
| 775 s | C[C@H]1C[C@H]2[C@@H]3CCC4=CC(=O)C=C[C@]4(C)[C@H]3C(=O)C[C@]2(C)[C@@]1(O)C(=O)CO |
| 1230 s | CC1CCC(NC(=O)c2cc3sc(Cl)cc3n2C)CC1 (centres undefined) |
| 619 s | CCNC(=O)C1CCCN1C(=O)Nc1ccccc1 (centres undefined) |
| 588 s | O=C(C1CCCN(c2nn3c(=O)c4c(nc3s2)CCCC4)C1)N1CCN(c2ccccn2)CC1 (centres undefined) |
| 852 s | Cc1nnc(-c2cc(C)n(CC(=O)Nc3ccc(C)c(Cl)c3)c2C)o1 |
| 646 s | Cc1cccc2nc(-c3ccc(O)cc3)c(Nc3ccc4c(c3)OCCO4)n12 |
| 658 s | Cc1cc(C)cc(S(=O)(=O)Nc2ccc3nc(N4CCN(CCC#N)CC4)cc(C(=O)O)c3c2)c1 |
| 575 s | Cc1cc(C)n(-c2ccnc(N3CCC(C(=O)NCCc4ccccn4)CC3)n2)n1 |
| 816 s | CC(=O)N1CCCc2ccc(NC(=O)Cc3ccc(Cl)cc3)cc21 |
| 774 s | O=C(c1ccsc1)N1CCN(c2[nH]ncc2-c2ccccc2)CC1 |
| 628 s | Cc1nnc(C2CCCCCN2C(=O)c2ocnc2C)o1 (centres undefined) |
| 755 s | Cc1ccc(NC(=O)N2C[C@@H](F)C[C@H]2C(=O)N2CCCCC2)cc1F |
| 727 s | COc1ccc(CC(=O)N2CCCC2c2c(C)noc2C)cc1 (centres undefined) |
| 1050 s | O=C(NC1CCCCCC1)c1nc(Cn2c(=O)oc3ccc(Cl)cc32)no1 |
| 629 s | CCCn1cnc2cc(-c3noc(C(C)NC(=O)c4ccco4)n3)ccc21 (centres undefined) |
| 657 s | Cc1ccn2cc(C(=O)NCc3cc(F)ccc3F)nc2c1 |
| 579 s | Cn1c(N2CCC(C(=O)N3CCN(Cc4ccc5c(c4)OCO5)CC3)CC2)cc(=O)n(C)c1=O |
| 733 s | CC1CCN(CCCNS(=O)(=O)c2ccccc2-c2nc(-c3ccccc3)no2)CC1 |
| 844 s | O=S(=O)(c1ccc(F)cc1F)N1CCN(Cc2cccc(F)c2)C2(CCOCC2)C1 |
| 667 s | O=C(NCc1csc(C2CCCN(C(=O)C3CC3)C2)n1)C1CCC1 (centres undefined) |
| 949 s | Cc1ccc(-c2nnc(N3CCC(C(=O)NC4CCCCCC4)CC3)o2)cc1 |

| RP-LC retention time | Compound |
| --- | --- |
| 1040 s | Cc1cc(NC(=O)CCc2nc(CSc3nnc(-c4ccccc4)o3)no2)ccc1Br |
| 659 s | O=C(NCc1ccc(F)cc1)C1CCN(c2cncnc2N2CCCC2)CC1 |
| 569 s | CN(C)C[C@@H]1CN(S(C)(=O)=O)C[C@H]1NC(=O)c1ccsc1 |
| 868 s | Cc1cc(C)cc(C(=O)NC(c2ccccc2)c2nnc(N3CCCC3)o2)c1 (centres undefined) |
| 1080 s | Cc1cc(C)cc(Oc2nccn3c(=O)n(CC(=O)Nc4cccc(C(C)C)c4)nc23)c1 |
| 702 s | CCN1CCN(C(=O)C(C)n2c(=O)c(C(F)(F)F)nc3cc(C)c(C)cc32)CC1 (centres undefined) |
| 812 s | CCn1cc(CCNC(=O)Nc2ccc(C)cc2Cl)c2cccnc21 |
| 706 s | Cc1ccc(NC(=O)C2CCN(S(=O)(=O)c3cn(C)cn3)CC2)c(C)c1 |
| 661 s | O=C(NCc1ccccc1)Nc1c(-c2ccc(F)cc2)nc2ccccn12 |
| 1040 s | CCOc1ccc(CNS(=O)(=O)c2cc(-c3cnn4c(C)cc(C)nc34)ccc2C)cc1OCC |
| 552 s | CCOC(=O)C(=O)NCC1CCC(c2nc3ccccc3n2C)CC1 (centres undefined) |
| 712 s | Cc1cccc(NS(=O)(=O)c2cc(-c3[nH]ncc3C(=O)N(C)C)oc2C)c1C |
| 882 s | COc1ccc(NC(=O)Cc2csc3nc(-c4cccc(Br)c4)cn23)cc1OC |
| 798 s | Cc1cc(OCC(=O)N2CCC3(O)CCCCC3C2)c2c(C)c(C)c(=O)oc2c1 (centres undefined) |
| 964 s | Cc1cc(F)ccc1NC(=O)C1CN(S(=O)(=O)C2CC2)CC12CCCCC2 (centres undefined) |
| 923 s | O=c1ccn(-c2ccc(F)c(F)c2)nc1-c1nc(-c2cccc(F)c2)no1 |
| 859 s | COc1ccc(-n2ccn3cc(-c4ccc(F)cc4)nc3c2=O)cc1Cl |
| 646 s | CNC(=O)C1CCN(c2nc3ncn(CC(=O)Nc4c(C)cc(C)cc4C)c(=O)c3s2)CC1 |
| 841 s | Cn1ncc2c(N3CCSCC3)nc(C(=O)N3CCN(c4ccc(F)cc4)CC3)nc21 |
| 569 s | Cc1ccc(OCCOCC(O)CN(CCO)CCO)cc1C (centres undefined) |
| 659 s | CN1CCC2(CC1)CN(C(=O)Nc1ccccc1)CC2c1nc(-c2ccccc2)no1 (centres undefined) |
| 614 s | Cc1nc2cc(N3CC(C(=O)Nc4ccc(C)c(C)c4)CC3=O)ccc2o1 (centres undefined) |
| 722 s | Cc1csc(-c2cn(CC(=O)Nc3ccc(C)c(C)c3)cn2)n1 |

| RP-LC retention time | Compound |
| --- | --- |
| 928 s | CCc1ccc(C2=C(C)C(N3CCCN(C(=O)NC(C)(C)C)CC3)=NS2(=O)=O)cc1 |
| 783 s | COc1ccc(-c2csc(SCc3ccc(C(=O)N4CCOCC4)o3)n2)cc1OC |
| 804 s | COc1ccc(C2C(C(=O)NCCC(C)C)c3cc(OC)c(OC)cc3C(=O)N2C)cc1 (centres undefined) |
| 936 s | CCOC(=O)c1cccc(NC(=O)c2cc(C)nn2-c2ccccc2)c1 |
| 892 s | Cc1ccc(CN2C(=O)Cn3cccc3C2C(=O)NC2CCCC2)cc1 (centres undefined) |
| 1210 s | Cc1ccc(C2C=CC(C#N)=CN2Cc2ccccc2)cc1 (centres undefined) |
| 626 s | c1ccc2c(OCc3nc4ccccc4[nH]3)cccc2c1 |
| 885 s | O=C(Nc1nnc(-c2ccc(C(F)(F)F)cc2)o1)c1cc2ccccc2o1 |
| 824 s | Cc1ccc(C2c3cc(OCC(=O)N4CCCC4)ccc3CCN2C(=O)C2CC2)cc1 (centres undefined) |
| 814 s | COc1cc(C(=O)NCCc2c[nH]c3ccc(C)cc23)cc(OC)c1OC |
| 805 s | COCCNC(=O)C1CCN(c2nc3ccc(-c4ccc(OC)cc4)nc3s2)CC1 |
| 673 s | NNC(=O)CNc1cccc(Br)c1 |
| 790 s | CC(C)(C[C@@](O)(Cc1cc2ccncc2[nH]1)C(F)(F)F)c1cc(F)ccc1O |
| 910 s | Cc1ccc(CN2C(=O)COc3ccc(C(=O)NC(C)(C)C)cc32)cc1 |
| 713 s | Cc1ccc2c(=O)c(C(=O)N3CCOCC3)cn(CC(=O)NCCC3=CCCCC3)c2n1 |
| 1100 s | COc1ccc(C)cc1NC(=O)Cn1nc2cc(C)nc(Nc3ccc(F)cc3)n2c1=O |
| 947 s | CN(C)S(=O)(=O)c1cccc(-c2nnc(-c3ccccc3Br)o2)c1 |
| 978 s | Cc1cccc(-c2noc(C3CC(=O)N(c4ccc5c(c4)OCO5)C3)n2)c1 (centres undefined) |
| 643 s | O=C(CCc1ccccc1)NC1CCN(c2cc(-c3ccccc3)[nH]n2)C1 (centres undefined) |
| 880 s | CCn1ccc2c(cc(C(=O)Nc3cccc(C(F)(F)F)c3)n2C)c1=O |
